Experimental data as given in PubChem BioAssay (NCI).
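Grown in 96-well plates, cells were treated for 48 hours with each compound at five concentrations. Insufficient inhibition: endpoint recorded as highest concentration tested. GI50 marks 50% less growth. TGI marks complete inhibition of growth.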

What was measured:
Assay in all cases: growth of human tumour cells (NCI), 48 h
786-0 renal = test system: 786-0 renal
A498 renal = test system: A498 renal
A549 NSCLC = test system: A549 NSCLC
ACHN renal = test system: ACHN renal
BT-549 breast = test system: BT-549 breast
CAKI-1 renal = test system: CAKI-1 renal
CCRF-CEM leukemia = test system: CCRF-CEM leukemia
COLO 205 colon = test system: COLO 205 colon
DU-145 prostate = test system: DU-145 prostate
EKVX NSCLC = test system: EKVX NSCLC
HCC-2998 colon = test system: HCC-2998 colon
HCT-116 colon = test system: HCT-116 colon
HCT-15 colon = test system: HCT-15 colon
HL-60(TB) leukemia = test system: HL-60(TB) leukemia
HOP-62 NSCLC = test system: HOP-62 NSCLC
HOP-92 NSCLC = test system: HOP-92 NSCLC
HS 578T breast = test system: HS 578T breast
HT29 colon = test system: HT29 colon
IGROV1 ovarian = test system: IGROV1 ovarian
K-562 leukemia = test system: K-562 leukemia
KM12 colon = test system: KM12 colon
LOX IMVI melanoma = test system: LOX IMVI melanoma
M14 melanoma = test system: M14 melanoma
MALME-3M melanoma = test system: MALME-3M melanoma
MCF7 breast = test system: MCF7 breast
MDA-MB-231 breast = test system: MDA-MB-231 breast
MDA-MB-435 = test system: MDA-MB-435
MOLT-4 leukemia = test system: MOLT-4 leukemia
NCI-H226 lung = test system: NCI-H226 lung
NCI-H23 lung = test system: NCI-H23 lung
NCI-H460 lung = test system: NCI-H460 lung
NCI-H522 lung = test system: NCI-H522 lung
NCI/ADR-RES ovarian = test system: NCI/ADR-RES ovarian
OVCAR-3 ovarian = test system: OVCAR-3 ovarian
OVCAR-4 ovarian = test system: OVCAR-4 ovarian
OVCAR-5 ovarian = test system: OVCAR-5 ovarian
OVCAR-8 ovarian = test system: OVCAR-8 ovarian
PC-3 prostate = test system: PC-3 prostate
RPMI-8226 leukemia = test system: RPMI-8226 leukemia
RXF 393 renal = test system: RXF 393 renal
SF-268 CNS = test system: SF-268 CNS
SF-295 CNS = test system: SF-295 CNS
SF-539 CNS = test system: SF-539 CNS
SK-MEL-2 melanoma = test system: SK-MEL-2 melanoma
SK-MEL-28 melanoma = test system: SK-MEL-28 melanoma
SK-MEL-5 melanoma = test system: SK-MEL-5 melanoma
SK-OV-3 ovarian = test system: SK-OV-3 ovarian
SN12C renal = test system: SN12C renal
SW-620 colon = test system: SW-620 colon
T-47D breast = test system: T-47D breast
TK-10 renal = test system: TK-10 renal
U251 CNS = test system: U251 CNS
UACC-257 melanoma = test system: UACC-257 melanoma
UACC-62 melanoma = test system: UACC-62 melanoma
UO-31 renal = test system: UO-31 renal
SNB-75 CNS = test system: SNB-75 CNS

## COc1ccc(-c2cn(C)c3c2-n2cccc2C3=O)cc1O
786-0 renal
  GI50: 9.86 µM
  TGI: 30.7 µM
A498 renal
  GI50: 2.82 µM
  TGI: 9.4 µM
A549 NSCLC
  GI50: 18.1 µM
  TGI: 54.1 µM
ACHN renal
  GI50: 5.05 µM
  TGI: 22.5 µM
BT-549 breast
  GI50: 3.99 µM
  TGI: 23.2 µM
CAKI-1 renal
  GI50: 2.09 µM
  TGI: 7.77 µM
CCRF-CEM leukemia
  GI50: 3.66 µM
  TGI: 25.4 µM
COLO 205 colon
  GI50: 17.1 µM
  TGI: 38.8 µM
DU-145 prostate
  GI50: 12.5 µM
  TGI: 32.9 µM
EKVX NSCLC
  GI50: 14.6 µM
  TGI: 51.5 µM
HCC-2998 colon
  GI50: 2.48 µM
  TGI: 6.46 µM
HCT-116 colon
  GI50: 11.1 µM
  TGI: 26.5 µM
HCT-15 colon
  GI50: 1.86 µM
  TGI: 9.15 µM
HL-60(TB) leukemia
  GI50: 3.48 µM
  TGI: > 100 µM
HOP-62 NSCLC
  GI50: 5.93 µM
  TGI: 29.3 µM
HOP-92 NSCLC
  GI50: 6.8 µM
  TGI: > 100 µM
HS 578T breast
  GI50: 0.611 µM
  TGI: 3.9 µM
HT29 colon
  GI50: 18 µM
  TGI: > 100 µM
IGROV1 ovarian
  GI50: 26.9 µM
  TGI: 75.2 µM
K-562 leukemia
  GI50: 4.3 µM
  TGI: > 100 µM
KM12 colon
  GI50: 3.71 µM
  TGI: 16.4 µM
LOX IMVI melanoma
  GI50: 3.71 µM
  TGI: 13.3 µM
M14 melanoma
  GI50: 6.57 µM
  TGI: 20.3 µM
MALME-3M melanoma
  GI50: 1.77 µM
  TGI: 9.28 µM
MCF7 breast
  GI50: 0.806 µM
  TGI: 20.3 µM
MDA-MB-231 breast
  GI50: 3.65 µM
  TGI: 29.8 µM
MDA-MB-435
  GI50: 0.893 µM
  TGI: 3.91 µM
MOLT-4 leukemia
  GI50: 7.21 µM
  TGI: 82.2 µM
NCI-H226 lung
  GI50: 6.33 µM
  TGI: 39.7 µM
NCI-H23 lung
  GI50: 3.22 µM
  TGI: 16.5 µM
NCI-H460 lung
  GI50: 3.06 µM
  TGI: 20 µM
NCI-H522 lung
  GI50: 10.1 µM
  TGI: 40.8 µM
NCI/ADR-RES ovarian
  GI50: 3.39 µM
  TGI: 25.3 µM
OVCAR-3 ovarian
  GI50: 3.39 µM
  TGI: 21.4 µM
OVCAR-4 ovarian
  GI50: 25.6 µM
  TGI: > 100 µM
OVCAR-5 ovarian
  GI50: 5.74 µM
  TGI: 25.2 µM
OVCAR-8 ovarian
  GI50: 19.7 µM
  TGI: > 100 µM
PC-3 prostate
  GI50: 6.09 µM
  TGI: > 100 µM
RPMI-8226 leukemia
  GI50: 2.05 µM
  TGI: 17.5 µM
RXF 393 renal
  GI50: 42.3 µM
  TGI: 99.4 µM
SF-268 CNS
  GI50: 11.4 µM
  TGI: 50.5 µM
SF-295 CNS
  GI50: 5.22 µM
  TGI: 21.3 µM
SF-539 CNS
  GI50: 1.76 µM
  TGI: 16.5 µM
SK-MEL-2 melanoma
  GI50: 19.7 µM
  TGI: 55.3 µM
SK-MEL-28 melanoma
  GI50: 11.4 µM
  TGI: 33.8 µM
SK-MEL-5 melanoma
  GI50: 1.4 µM
  TGI: 5.93 µM
SK-OV-3 ovarian
  GI50: 5.86 µM
  TGI: 94.7 µM
SN12C renal
  GI50: 10.8 µM
  TGI: 41.2 µM
SW-620 colon
  GI50: 6.9 µM
  TGI: > 100 µM
T-47D breast
  GI50: 4.78 µM
  TGI: 28.9 µM
TK-10 renal
  GI50: 3.05 µM
  TGI: 8.29 µM
U251 CNS
  GI50: 8.61 µM
  TGI: 29.8 µM
UACC-257 melanoma
  GI50: 15.9 µM
  TGI: 32.9 µM
UACC-62 melanoma
  GI50: 3.27 µM
  TGI: 12.2 µM
UO-31 renal
  GI50: 16.1 µM
  TGI: > 100 µM

## CCc1cn2c(/C=N/N=C(N)N)c(-c3cc(C)c(Cl)cc3Cl)nc2s1
A498 renal
  TGI: 3.75 µM
ACHN renal
  TGI: 3.04 µM
BT-549 breast
  TGI: 3.2 µM
COLO 205 colon
  TGI: 3.61 µM
DU-145 prostate
  TGI: 3 µM
HCT-15 colon
  TGI: 2.97 µM
HT29 colon
  TGI: 2.45 µM
MDA-MB-231 breast
  TGI: 2.12 µM
MDA-MB-435
  TGI: 2.76 µM
NCI-H23 lung
  TGI: 3.16 µM
NCI/ADR-RES ovarian
  TGI: 24.8 µM
OVCAR-4 ovarian
  TGI: 2.78 µM
OVCAR-5 ovarian
  TGI: 2.96 µM
SF-539 CNS
  TGI: 3.11 µM
SK-MEL-28 melanoma
  TGI: 2.82 µM
SK-MEL-5 melanoma
  TGI: 2.99 µM
SK-OV-3 ovarian
  TGI: 3.56 µM
SNB-75 CNS
  TGI: 2.88 µM
TK-10 renal
  TGI: 3.46 µM
UACC-62 melanoma
  TGI: 2.72 µM
